Columns and labels:
MCF-7 cells [1] = assay: Chromatin immunoprecipitation with anti-acetylated histone H3 antibody and PCR of B2M gene, MCF-7 cells; format: cell-based, human; settings: 100 nM TSA, 24 hours
Description: (§1) Human breast cancer cell lines, that is, MCF-7 cells and HMC-1 cells were used to culture in the presence of 100 nM TSA (Sigma, USA) for 24 hours or 4 mM VPA (Sigma, USA) for 48 hours, respectively followed by extracting chromatin from the cells according to the manufacturer's instructions (Upstate Inc., USA) and immunoprecipitating the chromatin using anti-acetylated histone H3 antibody (Upstate Inc., USA) (see Assam El-Osta, et al. 2002. MOLECULAR AND CELLULAR BIOLOGY 22(6). p. 1844-1857). The genes binding to the acetylated histones were amplified by using PCR with the B2M gene-specific primers ([…] and […]), electrophoresed on 1% agarose gel followed by detecting with a transilluminator in the presence of ethidium bromide.

MCF-7 cells [2] = assay: Western blot of intracellular B2M, HLA class I heavy chain and actin, MCF-7 cells; format: cell-based, human; settings: TSA 100 nM, 24 hours
Description: (§2) (1) Using the same cells as those in the example 1, MCF-7 cells and HMC-1 cells were cultured in the presence of TSA, a HDAC inhibitor, (100 nM) for 24 hours respectively, followed by harvesting them. (2) 1×10^6 cells are lysed in […] cell lysate (RIPA buffer) and a soluble fraction is harvested as a lysate. SDS sample buffer was added to the lysate. (3) The protein samples were loaded on 7.5% SDS polyacrylamide gel and electrophoresed. (4) The proteins in the gel were transferred on a PVDF membrane (Millipore). (5) The transferred membrane was immersed in 5% skim milk in PBS and blocked for about one hour. (6) The transferred membrane was immersed in a primary antibody (anti-pan-HLA class I heavy chain antibody EMR8-5 (Hokudo, Sapporo), or anti-B2M antibody EMRB6 (Hokudo, Sapporo), or anti-actin antibody (DAKO), and incubated for one hour at room temperature. (7) The transferred membrane was washed with a lavage PBS-T (0.05% Tween 20/PBS, pH7.4) three times. (8) The transferred membrane was immersed in a secondary antibody peroxidase-labeled anti-mouse IgG antibody (KPL, USA) and incubated for one hour at room temperature. (9) The transferred membrane was washed with a lavage PBS-T (0.05% Tween 20/PBS, pH7.4) three times. […] (11) Luminescent signals were detected by exposure to X ray film.

HMC-1 cells [3] = assay: Western blot of intracellular B2M, HLA class I heavy chain and actin, HMC-1 cells; format: cell-based, human; settings: TSA 100 nM, 24 hours
Description: as §2

MCF-7 cells [4] = assay: Flow cytometry of cell surface MHC class I antigen (W6/32 antibody), MCF-7 cells; format: cell-based, human; settings: TSA 100 nM, 24 hours, vs non-treated
Description: (§3) Using the same cells as those in the examples 1 and 2, MCF-7 cells and HMC-1 cells were cultured for 24 hours in the presence of HDAC inhibitor TSA (100 nM) or for 48 hours in the presence of HDAC inhibitor VPA (4 mM), respectively, and the level of MHC class I antigen expressing on the cell surface was analyzed by a flow cytometer (Becton Dickinson).
(§4) (1) 1×10^6 cells were floated in […] PBS buffer, added a primary antibody (an antipan-HLA class I antibody W6/32 (Barnstable, C. J., Bodmer, W. J., Brown, G., Galfre, G., Milstein, C., Williams, A. F., and Zeigler, A. (1978) Cell 14, 9-20)) and incubated for 40 minutes at 4° C. (2) The cells were washed twice with PBS. (3) To the suspended cell was added a secondary antibody (FITC-labeled anti-mouse IgG antibody (IPL, USA)) and incubated for 40 minutes at 4° C. (4) The cells were washed twice with PBS, floated in PBS added with 1% formalin followed by analyzing FITC level of the cell surface by a flow cytometer.

HMC-1 cells [5] = assay: Flow cytometry of cell surface MHC class I antigen (W6/32 antibody), HMC-1 cells; format: cell-based, human; settings: vs non-treated
Description: as §3, §4

class I and II HDAC = settings: Non-patent documents 5 and 6; cited from earlier work
HMC-1 cells [6] = assay: Chromatin immunoprecipitation with anti-acetylated histone H3 antibody and PCR of B2M gene, HMC-1 cells; format: cell-based, human; settings: 4 mM VPA, 48 hours
Description: as §1

[7] = test system: human breast cancer cell line MCF7 cells transplanted into SCID mice; assay: Immunostaining of MCF7 tumor transplanted into SCID mice after oral VPA; format: in vivo; settings: SCID mouse, water containing 0.4% VPA for 10 days, vs control
Description: A human breast cancer cell line MCF7 cells were transplanted into SCID mice. […] One mouse was supplied with water containing 0.4% valproic acid (VPA, Sigma) for 10 days, and the other mouse was supplied with water with no additive as control. […] Following the method according to example 4, treatment of tissue slices as well as immunostaining with anti-HLA class I antibody (EMR8-5) and anti-B2M antibody (EMR-B6) were performed.

[8] = test system: HIV infection T cells (clone 8E5); assay: Flow cytometry of cell surface HLA class I, HIV infection T cells; format: cell-based; settings: HIV infection T cells (8E5), 4 mM valproic acid, 48 hours
Description: (§5) HIV infection T cells (clone 8E5, purchased from ATCC) were cultured in 4 mM valproic acid-added culture medium (RPMI1640) or non additive culture medium for 48 hours, and reacted with an anti-pan-HLA class I antibody, W6/32 antibody and with FITC-labeled anti-mouse IgG antibody for 40 minutes respectively, and the cells were fixed in 0.1% formalin/PBS. The fluorescence intensities were measured by flow cytometer (FACScan, Beckton Dickinson).

[9] = test system: Papilloma virus persistent infection cells (HeLa cells); assay: Flow cytometry of cell surface HLA class I, papilloma virus persistent infection cells; format: cell-based; settings: 4 mM valproic acid, 48 hours
Description: as §5, with “Papilloma virus persistent” for “HIV”, “infection” for “infection T”, “(HeLa cells)” for “(clone 8E5, purchased from ATCC)”, “(FACS can,” for “(FACScan,”

[10] = test system: EB virus persistent infection B cells (LG2EBV cells); assay: Flow cytometry of cell surface HLA class I, EB virus persistent infection B cells; format: cell-based; settings: 4 mM valproic acid, 48 hours
Description: (§6) EB virus persistent infection B cells (LG2EBV cells) were cultured in 4 mM valproic acid-added culture medium (RPMI1640) or non additive culture medium for 48 hours, and reacted with an anti-pan-HLA class I antibody, W6/32 antibody and with FITC-labeled anti-mouse IgG antibody for 40 minutes respectively, and the cells were fixed in 0.1% formalin/PBS. The fluorescence intensities were measured by flow cytometer (FACScan, Beckton Dickinson).

[11] = test system: Mumps virus persistent infection B cells (Akata-MP1 cells); assay: Flow cytometry of cell surface HLA class I, mumps virus persistent infection B cells; format: cell-based; settings: 4 mM valproic acid, 48 hours
Description: as §6, with “Mumps” for “EB”, “(Akata-MP1” for “(LG2EBV”

[12] = test system: Measles virus persistent infection B cells (Raji-ZH cells); assay: Flow cytometry of cell surface HLA class I, measles virus persistent infection B cells; format: cell-based; settings: 4 mM valproic acid, 48 hours
Description: as §6, with “Measles” for “EB”, “(Raji-ZH” for “(LG2EBV”

SMILES	B2M gene detected in anti-acetylated histone H3 immunoprecipitate (MCF-7 cells [1])	expression level of intracellular HLA heavy chain and actin proteins (MCF-7 cells [2])	level of intracellular B2M protein (MCF-7 cells [2])	expression level of intracellular HLA heavy chain and actin proteins (HMC-1 cells [3])	level of intracellular B2M protein (HMC-1 cells [3])	increase of MHC class I level of the cell surface (MCF-7 cells [4])	increase of MHC class I level of the cell surface (HMC-1 cells [5]; TSA 100 nM, 24 hours)	HDAC class selectivity (class I and II HDAC)	B2M gene detected in anti-acetylated histone H3 immunoprecipitate (HMC-1 cells [6])	increase of MHC class I level of the cell surface (HMC-1 cells [5]; VPA 4 mM, 48 hours)	expression level of B2M in tumor [7]	expression level of HLA class I antigen in tumor [7]	HLA class I level on a cell surface [8]	HLA class I level on a cell surface [9]	HLA class I level on a cell surface [10]	HLA class I level on a cell surface [11]	HLA class I level on a cell surface [12]
CC(/C=C/C(=O)NO)=C\[C@@H](C)C(=O)c1ccc(N(C)C)cc1 [TSA, tricostatin A]	B2M gene was detected together with acetylated histones	no great difference	remarkably increased	no great difference	remarkably increased	about 10 times	about 10 times	inhibits class I and II HDAC									
CCCC(CCC)C(=O)O [VPA, valproic acid]								preferably inhibits class I MAC compared with class II HDAC	B2M gene was detected together with acetylated histones	about 10 times	increased compared to control group	increased compared to control group	recovery of expression was observed	recovery of expression was observed	recovery of expression was observed	recovery of expression was observed	recovery of expression was observed

Reference: patent publication US20100093862A1, “POTENTIATION OF CELLULAR IMMUNITY USING HISTONE DEACETYLASE (HDAC) INHIBITORS” (Sapporo Medical Univeristy and Japan Science and Technology …, priority 2006, published 2010)
